We go through five molecules from PMC3633906, “A High Throughput Screen for RGS Proteins Using Steady State Monitoring of Free Phosphate Formation” (PLoS ONE, 2013).

Molecules are shown by their SMILES. Where a name gives a salt, the structure may show the parent alone. Read-outs that look alike come from different tables or passages of the source.

The target of one data set is T1, RGS4(WT) (Rattus norvegicus, UniProt P49799).
T1 construct: fused to the N-terminus of an RGS4 construct containing amino acids 51–205; 10× His tag (N, cleaved yes); made in house; host or cells: E. coli BL21-DE3
T1 sequence (P49799 51-205): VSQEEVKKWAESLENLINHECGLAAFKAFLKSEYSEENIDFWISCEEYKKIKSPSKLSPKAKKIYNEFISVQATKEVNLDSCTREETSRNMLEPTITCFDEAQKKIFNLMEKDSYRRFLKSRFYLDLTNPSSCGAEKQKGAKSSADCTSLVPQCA
Put plainly: Malachite green steady-state GAP assay, RGS4(WT). Format: biochemical. The note with it: for Mean absorbance at 642 nm, positive control: 10 µM final compound. Here is the method: Stock solutions of each of the 3 components of the developing solution were prepared, which are stable for long-term storage. Malachite solution was prepared by first diluting concentrated sulfuric acid 1∶5 in distilled water. Once the solution cooled to 25°C, malachite solution was prepared by dissolving 0.44 g of malachite green oxalate (Alfa Aesar; Ward Hill, MA) in 360 mL diluted acid and stored at 25°C. Molybdate solution, containing 7.5% ammonium molybdate tetrahydrate (Alfa Aesar; Ward Hill, MA), was prepared in distilled water and stored at 4°C. Tween-20 solution, used to maintain solubility of the phosphate-molybdate-malachite complex, was prepared as 11% (v/v) Tween-20 in distilled water. On the day of use, 2.5 mL molybdate solution and 0.2 mL Tween-20 solution were added to 10 mL of malachite solution and mixed quickly to avoid precipitation of malachite. The final ratio of the Developing Solution (DS) was 50∶12.5∶1 (malachite:molybdate:Tween-20). The peak absorbance was determined by a 2 nm step wavelength scan, using 10 µM Na3PO4 at pH 7.5 as the negative control.
The malachite green assay involves 5 components, with a 1 min spin at 100×g between each addition. For time-course experiments, the first component was 10 µL Malachite Green Assay Buffer (MGB; 50 mM HEPES at pH 7.5, 100 mM NaCl, 5 mM EDTA, 10 mM MgCl2, 0.01% lubrol) into a clear 384-well plate (ThermoFisher Scientific; Waltham, MA) using a MultiDrop dispenser (PerkinElmer; Waltham, MA). The second component dispensed was 10 µL of a 4× stock of RGS4, typically 200 nM to 1.6 µM with the target final concentration of 50 nM to 400 nM, diluted in MGB. After a 30 min incubation, 10 µL of the third component, 4× stock of Gαi diluted in MGB, was dispensed (typically between 4 µM and 80 µM with a desired final concentration 1 µM to 20 µM). After a minimum of 5 min incubation, 10 µL of the fourth component, 4× GTP diluted in MGB, was added at 10 minute intervals from 1–110 minutes. The 0 min time point was excluded due to amount of time required to proceed from GTP addition to quenching with DS. 4× GTP concentrations varied between 0.2 mM and 2.4 mM, with a target final concentration of 50 µM to 600 µM. To terminate the reaction, 10 µL of DS was added to each well using a Microlab Star liquid handling robot (Hamilton Robotics; Reno, NV), to achieve a final ratio 4∶1 (sample:developing solution). Following the spin, the plate was incubated for 25 min before being read at 642 nm for absorbance using an EnVision plate reader (PerkinElmer; Waltham, MA). RGS8 was evaluated similarly to as described for RGS4, with 4× stock concentrations from 20 nM and 800 nM. For each time-course, corresponding GTP only wells were included to account for spontaneous hydrolysis of GTP over time.
(§1) Malachite green compound activity and Z-factor analysis conducted in 384-well plates utilized optimized parameters as discerned from the time-course experiments. 10 µL of 4× compound or MGB was dispensed into appropriate wells. For single point assay, 160 µM compound was used, and for dose-response assays a series of ½ log dilutions from 100 µM final to 316pM final was used. 10 µL of the optimized 4× RGS4 concentration, 0.8 µM in MGB, was dispensed into all wells. After a spin down at 100×g for 1 min, the assay plate was incubated at 25°C for 30 min. 10 µL of the optimized Gαi concentration, 20 µM in MGB, was dispensed to each well and incubated at 25°C for 5 min. 10 µL of the optimized 4× GTP, 600 µM in MGB, was then added to the samples. After spinning the samples down at 100×g for 1 min, the samples were incubated at 25°C for 75 min. The samples were then stamped with 10 µL of DS and incubated for 25 min before reading absorbance at 642 nm.
1536-well Z-factor analysis and compound library screen were accomplished largely as described for 384-well plates. Initial screen and Z-factor determination was performed in a final concentration of 5.5% dimethylsulfoxide. […]

In the next data set the target is RGS4(Δ7) mutant (Rattus norvegicus, UniProt P49799, C132A/C148A/C183A/C197A/C204A/C71A/C95A). In words: Malachite green steady-state GAP assay, cysteine-null RGS4(Δ7) counter screen. Format: biochemical.
Chain of RGS4(Δ7) mutant (P49799 51-205 C71A/C95A/C132A/C148A/C183A/C197A/C204A limits assumed): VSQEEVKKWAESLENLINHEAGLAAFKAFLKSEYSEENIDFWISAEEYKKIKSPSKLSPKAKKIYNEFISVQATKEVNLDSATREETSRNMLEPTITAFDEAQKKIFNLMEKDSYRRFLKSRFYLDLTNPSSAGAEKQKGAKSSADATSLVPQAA
Text: Rat RGS4, sharing 97% sequence identity with human RGS4, and the cysteine to alanine mutant were expressed as fusion proteins of maltose binding protein (MBP), a 10× His tag, and a TEV protease recognition site fused to the N-terminus of an RGS4 construct containing amino acids 51–205, in the vector pMALC2H10T in BL21-DE3 E. coli (Stratagene; Santa Clara, CA). The single cysteine-null Δ51-RGS4 construct was generated by site-directed mutagenesis as described previously. Expression and purification were performed as described previously. Purified protein was incubated with TEV protease at a molar ratio of 10∶1(fusion protein:TEV protease) overnight at 4°C. The cleaved Δ51-RGS4 was then isolated by purification over an ANX column (GE Healthcare; Fairfield, CT) in 50 mM HEPES at pH 6.8 and 50 mM NaCl. The flow through, containing the ∼99% Δ51-RGS4 as determined by SDS-PAGE gel, was then collected and concentrated using a YM-10 centrifugal concentrator (Millipore; Billerica, MA). The concentration of Δ51-RGS4 was calculated based on the absorbance at 280 nm utilizing a Take-3 plate (Biotek; Winnoski, VT) in a Synergy 2 plate reader (Biotek; Winnoski, VT).
as §1
Data was analyzed using Prism analysis software (Graphpad Software; La Jolla, CA). Initial malachite green assay optimization was accomplished by comparing the fit of both straight line and hyperbolic functions. The fit that mostly closely resembled the data was used to represent the data. IC50 values for each compound were determined by fitting the data to a sigmoidal curve, which was used to calculate the IC50 value.
On the technique in general: The purpose of a counterscreen is to sort out artefacts and off-target activity.

On the set-up of data set [1]: method as in PMID 20700722, PMID 21088503. As to conditions: rodent models; cited from earlier work.
Setting [2] is: malachite green assay, RGS4(Δ7) mutant, concentration-response, read-out: IC50 against RGS4(Δ7).

Turning to `Cc1ccc(-n2sc(=O)n(Cc3ccc(F)cc3)c2=O)cc1` [CCG-50014, reference compound], the “Mean absorbance at 642 nm, positive control” value is 0.92 on RGS4(WT) (384-well plate, 192 wells, negative control (buffer) mean 1.74) and 0.30 at RGS4(WT) (1536-well plate, 5.5% DMSO, 128 wells, negative control (buffer) mean 0.67).

One may read the IC50 as the concentration that inhibits the measured activity by half. For `C[n+]1cc2c3c(ccc2c2ccc4cc5c(cc4c21)OCO5)OCO3` [UI-5, sanguinarium sulfate], the IC50 at RGS4(WT) (malachite green assay, 200 nM RGS4, concentration-response, read-out: IC50 against RGS4(WT)) is 126 µM; at RGS4(Δ7) mutant (setting [2]), 454 µM.

Turning to `CC1=C(O)C(=O)C=C2C1=CC=C1[C@@]2(C)CC[C@@]2(C)[C@@H]3C[C@](C)(C(=O)O)CC[C@]3(C)CC[C@]12C` [UI-1590, celastrol], the figures for the half-inhibitory concentration (IC50) against RGS4(WT) and on RGS4(Δ7) mutant were 0.724 µM and 88 µM, respectively. Moreover, the Toxicity in vivo result in data set [1] was “minor toxicity”.

Take `CC(C)=CCC[C@]1(C)C=Cc2c(O)c3c(c(CC=C(C)C)c2O1)O[C@]12C(=C[C@@H]4C[C@H]1C(C)(C)O[C@@]2(C/C=C(/C)C(=O)O)C4=O)C3=O` [UI-1907, gambogic acid]: the results for the concentration for half-maximal inhibition (IC50) at RGS4(WT) and at RGS4(Δ7) mutant were 16 µM and 51 µM, respectively. Besides, the “Inhibition of RGS4 (in words)” value at RGS4(WT) (malachite green assay) was “weak inhibitors”. Besides, the “Inhibition of RGS4(Δ7) (in words)” value at RGS4(Δ7) mutant (malachite green assay) is reported as “weak inhibitors”.

On to `CC(=O)Oc1c2c(c(CC=C(C)C)c3c1C(=O)C1=C[C@@H]4CC5C(C)(C)OC(C/C=C(\C)C(=O)O)(C4=O)[C@@]15O3)OC(C)(CCC=C(C)C)C=C2` (some centres unmarked) [UI-2034, acetyl-isogambogic acid], for which the “Inhibition of RGS4 (in words)” value on RGS4(WT) (malachite green assay) is recorded as “weak inhibitors”. In addition, the “Inhibition of RGS4(Δ7) (in words)” value on RGS4(Δ7) mutant (malachite green assay) was “weak inhibitors”. Further, at RGS4(Δ7) mutant (setting [2]), the IC50 was found to be 181 µM.
